Experimental data taken from patent US10519131B2, “Benzazepine compounds, conjugates, and uses thereof” (SILVERBACK THERAPEUTICS, INC., priority 2017, dated 2019).

Assays:
[1] = tested on: Human peripheral blood mononuclear cells (PBMC); test: PBMC screening assay, TNF-α in supernatant; type: cell-based; settings: 24 hours, TNF-α in supernatant by ELISA or HTRF
Description: Human peripheral blood mononuclear cells (PBMC) were obtained from BenTek, frozen at 25×10^6 cell/mL in 10% DMSO (Sigma) prepared in fetal bovine serum (Gibco) and stored in liquid nitrogen. For culture PBMC were thawed quickly in a 37° C. water bath and diluted into pre-warmed RPMI 1640 (Lonza) supplemented with 10% fetal bovine serum, 2 mM glutamine, 50 μg/mL penicillin, 50 U/mL streptomycin (all from Gibco) and centrifuged for 5 minutes at 500×g. PBMC were suspended into the growth media described above and cultured at a concentration of 1×10^6 cells per mL at 37° C. in a 5% CO2 incubator.
PBMC were thawed, suspended at a concentration of 1×10^6 cell/mL in growth media and 200 μL was aliquoted into each well of a 96-well plate for a total of 0.2×10^6 cells per well. PBMC were incubated for 16-18 hours at 37° C. in a 5% CO2 humidified incubator. The following day PBMC plates were centrifuged at 500×g for 5 minutes and the growth media was removed. […] TNF-α activity was assessed in the supernatant by ELISA (eBioscience) or HTRF (CisBio) per the manufacturer's instructions. Optical density at 450 nm and 570 nm (ELISA) or luminescence (HTRF) was analyzed using an Envision (Perkin Elmer) plate reader, as shown in Table 5.

[2] = tested on: human monocytes injected intratumorally; test: Antigen dependent monocyte activation in a mouse tumor model; type: in vivo, NOD SCID mice; settings: 5-20 mg/kg intravenously
Description: Human monocytes were prepared as described above. Trop2^+ MDA-MB-453 cells or Trop2-MiaPaca2 were cultured by standard methods. A TLR8 benzazepine linker payload (LP) was prepared by attaching a MCC (N-maleimidomethyl]cyclohexane-1-carboxylate) linker in place of the mc-vc-PABA linker in Compound-Linker 2.1 to form Compound-Linker 2.22. TROP2-TLR8 benzazepine conjugates were prepared by conjugation of Compound-Linker 2.22 to a TROP2 antibody (sacituzumab) to form a conjugate with an average DAR of about 4.
On Day 1 NOD SCID mice were injected with 5×10^5 Trop2^+ MDA-MB-453 cells or Trop2-MiaPaca2 cells. Seven to ten days later when the tumor size reached about 300 mm^3, the mice were injected intravenously with 5-20 mg/kg of the TROP2-TLR8 benzazepine conjugate or TROP2 antibody alone. Sixteen hours later, 10^6 human monocytes were injected intratumorally. Four to six hours later, the tumors were harvested and digested. Monocytes were identified by staining for cell surface markers and monocyte activation was determined by intracellular staining for IL-6.

With `CCCN(CCC)C(=O)C1=Cc2ccc(C(=O)NC3C[C@@H]3c3ccccc3)cc2N=C(N)C1` (stereo partly shown) [Compound 1.28] as the compound, how does the EC50 [1] read?
Its EC50 is < 500 nM.

For `CCCN(CCC)C(=O)C1=Cc2ccc(C(=O)Nc3ccc4c(c3)CN(C(=O)OCc3ccccc3)CC4)cc2N=C(N)C1` [Compound 1.30], which EC50 [1] is on record?
The EC50 was < 500 nM.

How did the “human monocyte activation (intracellular staining for IL-6)” value ([2]; mice having a TROP2-tumor (MiaPaca2)) turn out when “control antibody: "TROP2 antibody alone" (sacituzumab) in Example 16; elsewhere the unconjugated parental aTROP2 or aHER2 antibody” was run?
The value was “did not cause human monocyte activation”.

And the “human monocyte activation (intracellular staining for IL-6)” value ([2]; mice having a TROP2^+ tumor (MDA-MB-453))?
The value was “did not cause human monocyte activation”.
